{"source": "patent US20210186927A1", "about": "“COMBINATION PRODUCT FOR THE INDUCTION AND/OR MAINTENANCE OF GENERAL ANESTHESIA” (priority 2018, published 2021)", "key": {"rats [1]": {"test_system": "rats", "details": "cited from earlier work"}, "male Sprague Dawley rats [2]": {"test_system": "male Sprague Dawley rats", "type": "in vivo, rat", "procedure": "The spontaneous righting reflex: Before and at a series of set time points following each bolus injection, the animal was placed on its back and righting time measured. Righting normally occurs under 15 seconds. Whenever the animal was unable to right itself, it was considered that the spontaneous righting reflex had been lost and unconsciousness induced.\nDuration of unconsciousness: The time lapse since the loss of the spontaneous righting reflex until its recovery was recorded and considered a measurement of the overall duration of unconsciousness."}, "KOR": {"target": "KOR (Homo sapiens, UniProt P41145)", "sequence (P41145 whole entry)": "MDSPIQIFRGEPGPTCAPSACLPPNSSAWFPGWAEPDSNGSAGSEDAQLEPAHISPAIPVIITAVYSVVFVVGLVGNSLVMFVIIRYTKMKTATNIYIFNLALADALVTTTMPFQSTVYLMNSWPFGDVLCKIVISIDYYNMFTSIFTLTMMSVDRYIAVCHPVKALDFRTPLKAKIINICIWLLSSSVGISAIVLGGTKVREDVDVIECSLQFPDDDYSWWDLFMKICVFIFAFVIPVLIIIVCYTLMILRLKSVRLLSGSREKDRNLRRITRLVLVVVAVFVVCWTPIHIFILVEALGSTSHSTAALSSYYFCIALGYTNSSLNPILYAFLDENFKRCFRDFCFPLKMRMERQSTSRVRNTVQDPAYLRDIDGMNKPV", "details": "cited from earlier work"}, "mice [3]": {"test_system": "mice", "details": "0.5-2 mg/kg i.p.; cited from earlier work"}, "DOR": {"target": "DOR (Homo sapiens, UniProt P41143)", "sequence (P41143 whole entry)": "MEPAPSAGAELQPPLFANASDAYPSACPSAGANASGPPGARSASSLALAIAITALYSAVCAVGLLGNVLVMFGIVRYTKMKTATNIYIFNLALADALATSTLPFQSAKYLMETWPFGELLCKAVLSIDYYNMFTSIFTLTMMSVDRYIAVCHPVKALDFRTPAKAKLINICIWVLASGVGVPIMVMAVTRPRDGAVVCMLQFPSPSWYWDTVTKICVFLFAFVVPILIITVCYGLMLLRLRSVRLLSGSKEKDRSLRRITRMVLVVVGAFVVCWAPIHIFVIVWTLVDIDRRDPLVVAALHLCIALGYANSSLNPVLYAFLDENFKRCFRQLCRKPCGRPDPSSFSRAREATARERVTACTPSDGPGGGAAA", "details": "cited from earlier work"}, "mice [4]": {"test_system": "mice", "details": "cited from earlier work"}, "rats [5]": {"test_system": "rats", "details": "1.0-3.0 mg/kg i.p.; cited from earlier work"}, "monkeys": {"test_system": "monkeys", "details": "drug-discrimination study; cited from earlier work"}, "rats [6]": {"test_system": "rats", "details": "0.25-2 mg/kg i.p.; cited from earlier work"}, "healthy humans": {"test_system": "healthy humans", "details": "cited from earlier work"}, "male Sprague Dawley rats [7]": {"test_system": "male Sprague Dawley rats", "type": "in vivo, rat", "procedure": "Decreases in spontaneous locomotor and/or exploratory activity: Immediately after administration of each bolus injection, the animal was assessed for any changes in spontaneous locomotor and/or exploratory activity. […] If the spontaneous righting reflex (see here below) had not been lost after dosing but sedation was observed, the animal was monitored at regular intervals to assess the duration of the induced sedation.", "remark": "listed apart in the source"}, "Rhesus monkeys": {"test_system": "Rhesus monkeys", "details": "cited from earlier work"}, "MOR": {"target": "MOR (Homo sapiens, UniProt P35372)", "sequence (P35372 whole entry)": "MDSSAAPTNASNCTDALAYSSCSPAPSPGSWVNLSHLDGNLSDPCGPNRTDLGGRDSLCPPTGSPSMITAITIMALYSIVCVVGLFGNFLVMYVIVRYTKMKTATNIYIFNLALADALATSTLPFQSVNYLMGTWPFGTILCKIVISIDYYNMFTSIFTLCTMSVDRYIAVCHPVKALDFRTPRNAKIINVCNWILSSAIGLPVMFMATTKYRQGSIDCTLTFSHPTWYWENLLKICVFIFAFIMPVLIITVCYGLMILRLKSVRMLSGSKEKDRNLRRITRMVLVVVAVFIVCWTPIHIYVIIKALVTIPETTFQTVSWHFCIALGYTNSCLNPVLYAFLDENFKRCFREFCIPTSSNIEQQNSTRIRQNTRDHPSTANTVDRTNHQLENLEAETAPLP", "details": "cited from earlier work"}, "rats [8]": {"test_system": "rats", "details": "10 mg/kg i.p.; cited from earlier work"}}, "note": "Like-named read-outs stand apart in the source and are kept apart here.", "data": [{"smiles": "COC(=O)[C@@H]1C[C@H](OC(C)=O)C(=O)[C@H]2[C@@]1(C)CC[C@H]1C(=O)O[C@H](c3ccoc3)C[C@]21C", "note": "[SA, Salvinorin A]", "values": [{"measurement": "effect on spontaneous locomotor activity", "setting": "rats [1]; 0.25-2 mg/kg i.p., rats", "value": "did not affect spontaneous locomotor activity"}, {"measurement": "effect on locomotor activity", "setting": "rats [1]; 0.4 and 0.64 mg/kg subcutaneously, rats", "value": "had no effects"}, {"measurement": "effect on locomotor activity", "setting": "rats [1]; repeated daily injections of 2 mg/kg i.p.", "value": "increased locomotor activity"}, {"measurement": "effect on locomotor activity", "setting": "rats [1]; single 2 mg/kg i.p.", "value": "no effect"}, {"measurement": "loss of consciousness or general anesthesia", "setting": "male Sprague Dawley rats [2]; SA alone 6.2 mg/kg i.v.", "value": "no loss of consciousness or general anesthesia"}, {"measurement": "righting time (spontaneous righting reflex)", "setting": "male Sprague Dawley rats [2]; SA alone 6.2 mg/kg i.v., 10 minutes after injection", "value": 8, "unit": "s"}, {"measurement": "loss of consciousness or general anesthesia", "setting": "male Sprague Dawley rats [2]; SA alone 6.4 mg/kg i.p.", "value": "no loss of consciousness or general anesthesia"}, {"measurement": "righting time (spontaneous righting reflex)", "setting": "male Sprague Dawley rats [2]; SA alone 6.4 mg/kg i.p., 1-40 min after injection", "value": "1 to 2", "unit": "s"}, {"measurement": "loss of consciousness or general anesthesia", "setting": "male Sprague Dawley rats [2]; SA alone 12.0 mg/kg i.v.", "value": "no loss of consciousness or general anesthesia"}, {"measurement": "righting time (spontaneous righting reflex)", "setting": "male Sprague Dawley rats [2]; SA alone 12.0 mg/kg i.v., 5 minutes after injection", "value": 12, "unit": "s"}, {"measurement": "loss of consciousness or general anesthesia", "setting": "male Sprague Dawley rats [2]; SA alone 12.9 mg/kg i.p.", "value": "no loss of consciousness or general anesthesia"}, {"measurement": "righting time (spontaneous righting reflex)", "setting": "male Sprague Dawley rats [2]; SA alone 12.9 mg/kg i.p., 1-40 min after injection", "value": "1 to 2", "unit": "s"}, {"measurement": "affinity and potency values at the KOR", "setting": "KOR", "value": "nanomolar range"}, {"measurement": "type of activity at the KOR", "setting": "KOR", "value": "full agonist"}, {"measurement": "sedation and coordination", "setting": "mice [3]", "value": "mild sedation and a loss of coordination"}, {"measurement": "affinity for the DOR", "setting": "DOR", "value": "no affinity"}, {"measurement": "analgesic effects", "setting": "mice [4]; 7.5 μg intracerebroventricularly", "value": "active"}, {"measurement": "analgesic effects", "setting": "mice [4]; 5 mg/kg i.p.", "value": "no analgesic effects"}, {"measurement": "antinociceptive effects", "setting": "mice [4]; 0.5-4 mg/kg intraperitoneally", "value": "dose-dependent antinociceptive effects"}, {"measurement": "changes in response rates", "setting": "rats [5]", "value": "No significant changes"}, {"measurement": "generalization between SA and ketamine", "setting": "monkeys", "value": "did not find that any generalization between the two drugs is applicable"}, {"measurement": "immobility in the forced swimming test", "setting": "rats [6]", "value": "increased immobility"}, {"measurement": "acute effects in humans", "setting": "healthy humans; acute administration to humans", "value": "intense visual and auditory hallucinations without loss of consciousness"}, {"measurement": "dose at which the effects are already noticeable", "setting": "healthy humans; humans", "value": 0.25, "unit": "mg"}, {"measurement": "psychometric measurements of sedation (PCAG subscale of the Addiction Research Center Inventory)", "setting": "healthy humans; humans", "value": "no significant dose-dependent increases"}, {"measurement": "time at which locomotor and exploratory activity were comparable to pre-injection values", "setting": "male Sprague Dawley rats [7]; SA alone 6.2 mg/kg i.v.", "value": 30, "unit": "min"}, {"measurement": "sedation", "setting": "male Sprague Dawley rats [7]; SA alone 6.2 mg/kg i.v., Example 2 Rat number 2", "value": "mild sedation"}, {"measurement": "time at which locomotor and exploratory activity were comparable to baseline", "setting": "male Sprague Dawley rats [7]; SA alone 6.4 mg/kg i.p.", "value": 30, "unit": "min"}, {"measurement": "sedation", "setting": "male Sprague Dawley rats [7]; SA alone 6.4 mg/kg i.p., Example 1 Rat number 2", "value": "light sedation"}, {"measurement": "time at which locomotor and exploratory activity were comparable to pre-injection values", "setting": "male Sprague Dawley rats [7]; SA alone 12.0 mg/kg i.v.", "value": 30, "unit": "min"}, {"measurement": "sedation", "setting": "male Sprague Dawley rats [7]; SA alone 12.0 mg/kg i.v., Example 2 Rat number 3", "value": "mild sedation"}, {"measurement": "time at which locomotor and exploratory activity were comparable to baseline", "setting": "male Sprague Dawley rats [7]; SA alone 12.9 mg/kg i.p.", "value": 40, "unit": "min"}, {"measurement": "sedation", "setting": "male Sprague Dawley rats [7]; SA alone 12.9 mg/kg i.p., Example 1 Rat number 3", "value": "slight sedation of longer duration"}, {"measurement": "sedation", "setting": "Rhesus monkeys; 0.032 mg/kg i.v.", "value": "sedative effects"}, {"measurement": "sedation", "setting": "Rhesus monkeys; 0.032 mg/kg s.c.", "value": "did not lead to overt sedation"}, {"measurement": "sedation", "setting": "Rhesus monkeys; i.v., maximum dose of 0.1 mg/kg", "value": "sedative effects"}, {"measurement": "affinity for the MOR", "setting": "MOR", "value": "no affinity"}, {"measurement": "antinociceptive effects", "setting": "rats [8]", "value": "no effects"}]}, {"smiles": "CN1C(=O)CN=C(c2ccccc2)c2cc(Cl)ccc21", "note": "[diazepam, Diazepam, reference compound]", "values": [{"measurement": "loss of consciousness or general anesthesia", "setting": "male Sprague Dawley rats [2]; rat, in vivo", "value": "did not induce loss of consciousness or general anesthesia"}, {"measurement": "righting time (spontaneous righting reflex)", "setting": "male Sprague Dawley rats [2]; rat, in vivo", "value": "2 to 3", "unit": "s"}, {"measurement": "sedation", "setting": "male Sprague Dawley rats [7]; rat, in vivo", "value": "clear sedation"}, {"measurement": "time of full recovery of spontaneous locomotor and exploratory activity", "setting": "male Sprague Dawley rats [7]; rat, in vivo", "value": 1, "unit": "h"}, {"measurement": "time of partial recovery of spontaneous locomotor and exploratory activity", "setting": "male Sprague Dawley rats [7]; rat, in vivo", "value": 30, "unit": "min"}, {"measurement": "time to decrease in spontaneous locomotor and exploratory activity", "setting": "male Sprague Dawley rats [7]; rat, in vivo", "value": 1, "unit": "min"}, {"measurement": "time to sedation", "setting": "male Sprague Dawley rats [7]; rat, in vivo", "value": "immediately after the end of the injection"}]}, {"smiles": "Cc1cccc(C(C)c2cnc[nH]2)c1C", "note": "(centres unmarked) [medetomidine, Medetomidine, reference compound]", "values": [{"measurement": "loss of consciousness or general anesthesia", "setting": "male Sprague Dawley rats [2]; rat, in vivo", "value": "did not induce loss of consciousness or general anesthesia"}, {"measurement": "righting time (spontaneous righting reflex)", "setting": "male Sprague Dawley rats [2]; rat, in vivo", "value": "2 to 3", "unit": "s"}, {"measurement": "sedation", "setting": "male Sprague Dawley rats [7]; rat, in vivo", "value": "sedative effect"}, {"measurement": "sedation lasted until", "setting": "male Sprague Dawley rats [7]; rat, in vivo", "value": 30, "unit": "min"}, {"measurement": "time to sedation after the injection", "setting": "male Sprague Dawley rats [7]; rat, in vivo", "value": 30, "unit": "s"}]}]}
